Results on two compounds are retold here after paper PMC5695812, “Novel chloroacetamido compound CWR-J02 is an anti-inflammatory glutaredoxin-1 inhibitor” (PLoS ONE, 2017).

Data set [1] deals with T1, glutaredoxin-1 (Grx1) (Mus musculus, UniProt Q9QUH0).
T1 construct: gene Glrx
T1 sequence (Q9QUH0 2-107): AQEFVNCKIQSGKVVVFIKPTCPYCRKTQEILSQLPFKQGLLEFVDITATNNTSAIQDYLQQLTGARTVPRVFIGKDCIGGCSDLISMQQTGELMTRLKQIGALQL
Kind of data set: Grx1 activity in lysates of treated BV2 murine microglia; click-biotin/streptavidin pull-down with MS and western blot. In kind it is cell-based.

Data set [2] has as its target T2, glutaredoxin-1 (Grx1) (Homo sapiens, UniProt P35754).
T2 construct: gene GLRX
T2 sequence (P35754 2-106): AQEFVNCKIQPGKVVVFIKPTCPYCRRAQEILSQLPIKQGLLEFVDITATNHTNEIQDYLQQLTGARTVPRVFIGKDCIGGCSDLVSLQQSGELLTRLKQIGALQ
Kind of data set: isolated enzyme spectrophotometric assay ([…] min pre-incubation, […] GSH); Kitz-Wilson kinetics; tandem MS of the Cys-22 adduct. In kind it is biochemical.

A further data set has as its target Cys22 (UniProt position 23, FIKPTCPYCRR). The settings on record: cited from earlier work.

Usually IC50 stands for the concentration needed to halve the response being measured. Read a low IC50 as inhibition by little substance. By pKa is commonly meant the negative logarithm of the acid dissociation constant.

`C#CCOc1cc(C(=O)NCc2ccc(NC(=O)CCl)cc2)cc(C(=O)OC)c1` [J02, methyl 3-((4-(2-chloroacetamido)benzyl)carbamoyl)-5-(prop-2-yn-1-yloxy) benzoate]: the results for the IC50 on glutaredoxin-1 (Grx1) [1] and on glutaredoxin-1 (Grx1) [2] were 37 µM and 32 µM, respectively.
“Glutaredoxin-1 (Grx1, thioltransferase) (Homo sapiens (inferred; species of the isolated enzyme not stated explicitly))”: the pKa in the data set with Cys22 is on record as 3.5.
